Laboratory results published in patent US8993309B2, “Predictive marker for topoisomerase I inhibitors” (Boston Medical Center Corporation, priority 2008, dated 2015).

Assays:
[1] = target: T1, DNA-PK (Homo sapiens, UniProt P78527); assay: CPT induced topoI downregulation in HeLa cells with or without DNA-PK inhibitor (anti-topoI immunoblot); assay type: cell-based; conditions: CPT treatment plus DNA-PK inhibitor (FIG. 9)
T1 construct: endogenous in cells; host or cells: HeLa
Experimental: Protein levels were determined by immuno blot analysis of cell lysate with anti-β actin.

[2] = system: HIV-1; conditions: acute and chronic infections, in vitro; cited from earlier work
[3] = system: Walker 256 tumor; conditions: experimentally transplanted Walker 256 tumor in rats; cited from earlier work
[4] = target: T2, topoI (Mus musculus, UniProt Q04750); assay: topoI down-regulation in response to CPT in DNA-PK deficient and efficient cells (anti-topoI immunoblot); assay type: cell-based
T2 construct: endogenous in cells; host or cells: ScH8 (DNA-PK +/+) and ScSv3 (DNA-PK -/-) mouse embryo fibroblasts
T2 sequence (Q04750 1-767): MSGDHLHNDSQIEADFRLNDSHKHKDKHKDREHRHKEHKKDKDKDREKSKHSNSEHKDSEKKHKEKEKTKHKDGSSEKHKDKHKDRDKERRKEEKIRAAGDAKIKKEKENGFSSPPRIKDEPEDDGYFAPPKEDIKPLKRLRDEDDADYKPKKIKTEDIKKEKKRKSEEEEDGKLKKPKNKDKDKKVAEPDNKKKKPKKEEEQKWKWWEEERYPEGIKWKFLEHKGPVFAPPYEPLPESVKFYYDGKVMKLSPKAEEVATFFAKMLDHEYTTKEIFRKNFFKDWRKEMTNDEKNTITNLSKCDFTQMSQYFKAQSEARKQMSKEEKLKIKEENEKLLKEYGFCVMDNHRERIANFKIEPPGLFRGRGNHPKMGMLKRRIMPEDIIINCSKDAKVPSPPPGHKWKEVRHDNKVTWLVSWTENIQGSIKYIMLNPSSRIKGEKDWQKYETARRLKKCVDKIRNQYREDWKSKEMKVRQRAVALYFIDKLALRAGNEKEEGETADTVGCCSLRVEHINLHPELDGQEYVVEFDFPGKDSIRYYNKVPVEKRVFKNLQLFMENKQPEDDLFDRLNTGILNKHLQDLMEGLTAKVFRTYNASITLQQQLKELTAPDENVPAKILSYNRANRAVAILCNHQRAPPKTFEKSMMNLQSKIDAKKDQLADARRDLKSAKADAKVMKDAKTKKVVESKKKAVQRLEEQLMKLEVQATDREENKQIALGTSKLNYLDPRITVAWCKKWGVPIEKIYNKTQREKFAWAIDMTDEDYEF
Experimental: (§1) Protein levels in FIG. 8A were determined by immuno blot analysis of cell lysate with anti-βactin.
(§2) Tissue Culture: Human cervical carcinoma (HeLa) cells, MCF-7 breast cancer cells, BT-474 breast cancer cells and Mouse embryo fibroblasts (MEF) reconstituted for stable expression of DNA-PK (ScH8) and […] MEF (ScSv3, DNA-PK −/−) were grown and maintained in Dulbecco's Modification of Eagle's Medium containing 10% fetal bovine serum, 2 mM L-Glutamine 100 units/mL of Streptomycin and 100 units/mL of Penicillin.
Cell Synchronization and Drug Treatment. MEF cells were phase-synchronized by serum starvation. Cells were incubated for 30 hours in Dulbecco's Modification of Eagle Medium containing 0.1% fetal bovine serum followed by 16 hour incubation in Medium containing 10% fetal bovine serum. Topo I inhibitor treatment was performed using a 25 μM concentration of Irinotecan (Sigma). Transient transfection of cell lines for BRCA1 and BARD1 expression was performed using the Geneporter 2 transfection kit (GenLantis).
Immunoprecipitation and immunoblot analysis: Cell lysates were prepared for immunoprecipitation and soluble proteins were incubated with anti-BRCA1 or anti-topoI (Topogen, Inc.). The immunoprecipitates were subjected to immunoblotting with anti-BRCA1 or anti-topoI. Antigen-antibody complexes were visualized by enhanced chemiluminescence (ECL detection system, GE, Piscataway, N.J.).

[5] = target: T3, topoI (Homo sapiens, UniProt P11387); assay: topoI down-regulation in BRCA1-silenced cells; assay type: cell-based; conditions: BRCA1-silenced Hela cells
T3 construct: endogenous in cells
T3 sequence (P11387 1-765): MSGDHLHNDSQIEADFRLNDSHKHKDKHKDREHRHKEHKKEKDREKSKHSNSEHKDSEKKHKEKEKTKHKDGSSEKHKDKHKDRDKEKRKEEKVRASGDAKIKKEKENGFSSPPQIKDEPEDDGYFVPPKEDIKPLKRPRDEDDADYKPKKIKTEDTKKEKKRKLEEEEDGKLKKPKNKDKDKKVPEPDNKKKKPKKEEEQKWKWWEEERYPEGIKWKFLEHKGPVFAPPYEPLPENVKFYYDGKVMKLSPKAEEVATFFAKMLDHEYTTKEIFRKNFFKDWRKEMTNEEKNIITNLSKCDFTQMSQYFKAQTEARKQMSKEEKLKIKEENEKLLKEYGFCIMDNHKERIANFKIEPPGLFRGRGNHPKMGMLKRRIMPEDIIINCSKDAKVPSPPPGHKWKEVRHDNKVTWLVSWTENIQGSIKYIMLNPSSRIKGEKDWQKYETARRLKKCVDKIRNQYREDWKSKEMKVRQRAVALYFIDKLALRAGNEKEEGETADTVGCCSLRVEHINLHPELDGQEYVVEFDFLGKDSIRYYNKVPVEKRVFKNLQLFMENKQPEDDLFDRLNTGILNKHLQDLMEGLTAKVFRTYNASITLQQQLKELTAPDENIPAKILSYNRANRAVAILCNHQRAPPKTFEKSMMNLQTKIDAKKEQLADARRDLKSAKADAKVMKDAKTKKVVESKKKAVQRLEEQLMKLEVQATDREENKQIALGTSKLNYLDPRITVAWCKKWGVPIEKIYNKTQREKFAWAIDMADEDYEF

[6] = system: DNA-PK -/- cells; assay: cell death of DNA-PK -/- and DNA-PK +/+ cells in response to CPT; assay type: cell-based, Mouse; conditions: DNA-PK -/- cells compared to DNA-PK +/+ cells, in response to CPT (FIG. 8C)
Experimental: as §1, §2

[7] = system: GFP-topoI and BRCA1; assay: co-immunostaining of GFP-topoI and BRCA1 after CPT treatment; assay type: cell-based; conditions: in response to treatment with CPT
[8] = system: biosynthesis of nucleic acids; conditions: cited from earlier work
[9] = system: leukemia L-1210; conditions: experimentally transplanted leukemia L-1210 in mice; cited from earlier work

## O=c1cc(N2CCOCC2)oc2c1ccc1ccccc12 [NU7026]
[1]
  effect on CPT induced topoI downregulation by UPP: obliterates CTP induced topoI downregulation

## CC[C@@]1(O)C(=O)OCc2c1cc1n(c2=O)Cc2cc3c(CN(C)C)c(O)ccc3nc2-1 [Topotecan]
[2]
  inhibition of HIV-1 infections: inhibit both acute and chronic HIV-1 infections

## CC[C@@]1(O)C(=O)OCc2c1cc1n(c2=O)Cc2cc3ccccc3nc2-1 [CPT, camptothecin]
[3]
  anti-tumor activity: potent anti-tumor activity
[4]; DNA-PK +/+ cells compared with DNA-PK deficient cells
  rate of topoI down-regulation in response to CPT: significantly higher rate of topoI down-regulation in DNA-PK +/+ cells
[4]; ScH8 cells (DNA-PK +/+) treated with CPT, six hours
  degradation of topoI: complete degradation
[4]; ScSV3 cells (DNA-PK -/-) treated with CPT, six hours
  topoI remained intact: more than 50%
[5]
  rate of topoI down-regulation: decrease in the rate of topoI down-regulation
[6]
  percentage of cell death: higher percentage of cell death
[7]
  localization of GFP-topoI and BRCA1: colocalized in DNA repair foci
[8]
  inhibitory activity toward the biosynthesis of nucleic acids: strong inhibitory activity
[9]
  anti-tumor activity: potent anti-tumor activity
